In PMC7248098, “Biochemical characterization and inhibition of the alternative oxidase enzyme from the fungal phytopathogen Moniliophthora perniciosa” (Communications Biology, 2020):
Values joined by “and” are separate entries in the source; they are usually repeats but may differ in a detail not shown here. Equal entries are not always repeated.

Legend:
Format in all cases: biochemical
[1] = biological target: T1, membrane-bound rMpAOX (Moniliophthora perniciosa, UniProt A8QJP8); assay: Membrane-bound rMpAOX activity with putative activators (O2 uptake, oxygraph; dose-response); settings: single independent measurements (Fig1a); for Fold-change in membrane-bound rMpAOX O2 uptake: 1 mM each; for fold induction at 1000 µM: pH 7.5, 1 mM each, read-out: Fold-change in membrane-bound rMpAOX O2 uptake
T1 sequence (A8QJP8 entry or part of it): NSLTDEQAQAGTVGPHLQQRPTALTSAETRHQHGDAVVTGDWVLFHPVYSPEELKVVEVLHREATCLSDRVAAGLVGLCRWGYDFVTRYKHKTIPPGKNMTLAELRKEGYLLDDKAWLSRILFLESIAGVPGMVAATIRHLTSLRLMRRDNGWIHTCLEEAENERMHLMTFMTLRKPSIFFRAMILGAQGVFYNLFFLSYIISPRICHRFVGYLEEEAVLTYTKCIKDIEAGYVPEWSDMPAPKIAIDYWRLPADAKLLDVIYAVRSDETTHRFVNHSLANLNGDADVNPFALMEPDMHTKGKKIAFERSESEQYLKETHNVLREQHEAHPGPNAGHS
Protocol: (§1) E. coli membrane preparation was performed as described with minor modifications. […] The cells were disrupted using two passes at […] through a pre-cooled Constant cell disruption system (Constant Systems Ltd). The lysate was centrifuged for 15 min at 16,000 rcf, and the pelleted unbroken cells and large cell debris were discarded. The supernatant was centrifuged for 90 min at 200,000 rcf to collect the fragmented membranes.
(§2) Respiration rates were recorded before and after the addition of putative AOX activators, such as 5′-ADP, 5′-AMP, 5′-GDP, 5′-GMP, glyoxylate, oxaloacetate, pyruvate or succinate (1 mM each unless stated otherwise). […] Data were acquired with the Multiskan FC Microplate Photometer (ThermoFisher). […] Absorbance readings were taken periodically and a blank reactions (substrate without enzyme) were included in every assay and were used to determine and subtract the autoxidation rate (background). Proteoliposomes were assayed as described for the E. coli membrane fraction except that no KCN was included and 0.5 µL of the prep (~50 ng rMpAOX) were added into the reaction. When tested, inhibitors were preincubated with the enzyme in reaction buffer for 2–5 min before starting the reaction by the addition of substrate. The path length (i.e., the height of the reaction medium inside the well) was calculated based on the reaction volume and the well cross-section area informed by the supplier. GraphPad Prism 7.0 (GraphPad Software Inc.) was used for function fitting.

[2] = biological target: purified rMpAOX (Moniliophthora perniciosa, UniProt A8QJP8); assay: Purified (detergent-solubilised) rMpAOX, Q1H2 oxidation; settings: for Activity: [Q1H2]
purified rMpAOX, sequence (A8QJP8 entry or part of it): as above
Protocol: The E. coli membrane fraction was resuspended with 50 mM Tris-HCl pH 7.5, 20% glycerol, 200 mM MgSO4 and 1% Fos-Choline-12 (FC-12) instead of MOPS buffer. The sample was left under gentle rocking for 1 h at 4 °C, after which it was centrifuged at 200,000 rcf for 30 min. […] T. Elthon, Nebraska, USA. Protein content was estimated through the Bradford method[63] and bovine serum albumin as standard.
as §2

[3] = biological target: rMpAOX incorporated into proteoliposomes (Moniliophthora perniciosa, UniProt A8QJP8); assay: rMpAOX incorporated into proteoliposomes with Q10 and NDH-2 (NADH oxidation); settings: for Km / VMax: substrate ubiquinol-10 in proteoliposomes, ~50 ng rMpAOX, 300 µM NADH
rMpAOX incorporated into proteoliposomes, sequence (A8QJP8 entry or part of it): as above
Protocol: Proteoliposomes (PL) were prepared as previously described[44],[45], except that NDH-2 was used instead of complex I and 0.5% DDM was used instead of OG. […] For kinetic studies, PLs were prepared with 50 µg rMpAOX and no NDH-2—in this case, pure NDH-2 was added directly into the enzymatic reaction mixture at a saturating concentration. Briefly, lipids and Q10 stocks in chloroform were mixed in a glass vial and the chloroform dried under a nitrogen stream. The lipids were hydrated and extruded through a 100 nm NanoSizer MINI Liposome Extruder (T&T Scientific) followed by the addition of protein. After treatment with the Bio-Beads SM-2 Resin (Bio-Rad), proteolipososmes were harvested by ultracentrifugation and resuspended in 150 µL of buffer. Enzymatic assays were performed on the same day.
as §2

[4] = biological target: T1, membrane-bound rMpAOX; assay: Dose-response assay of inhibitors with membrane-bound, GMP-activated rMpAOX (NADH oxidation); settings: for Fractional velocity, %: log[I]
Protocol: as §1, §2

[5] = substrate ubiquinol-1, 0.0125% C12E8, 100 ng rMpAOX

SMILES: O=C(O)CC(=O)C(=O)O [OXAL, oxaloacetate]
- Fold-change in membrane-bound rMpAOX O2 uptake ([1]; 1000 µM): 0.932 and 1.186
- fold induction at 1000 µM [1]: 0.847

SMILES: CC(=O)C(=O)O [PYR, pyruvate]
- Fold-change in membrane-bound rMpAOX O2 uptake ([1]; 1000 µM): 0.7655 and 0.9453
- fold induction at 1000 µM [1]: 0.681

SMILES: COc1c(O)c(C)c(CC=C(C)C)c(O)c1OC [Q1H2, ubiquinol-1]
- Oxidation rate ([2]; 180 µM Q1H2): 0.36 µmol/min/mg
- Activity ([2]; M 4.29 (Fig3c, mean)): 25.2546 nmol/min/mg
- Activity ([2]; M 6.87 (Fig3c, mean)): 30.5181 nmol/min/mg
- Activity ([2]; M 10.99 (Fig3c, mean)): 60.7997 nmol/min/mg
- Activity ([2]; M 17.58 (Fig3c, mean)): 87.5414 nmol/min/mg
- Activity ([2]; M 28.12 (Fig3c, mean)): 145.463 nmol/min/mg
- Activity ([2]; M 45 (Fig3c, mean)): 202.371 nmol/min/mg
- Activity ([2]; M 71.99 (Fig3c, mean)): 274.627 nmol/min/mg
- Activity ([2]; M 115.19 (Fig3c, mean)): 327.356 nmol/min/mg
- Activity ([2]; M 184.3 (Fig3c, mean)): 355.622 nmol/min/mg
- Km [2, 5]: 68.5 µM
- VMax [2, 5]: 504.1 nmol Q1 min^−1 mg^−1 and 504.1 ± 28.7 nmol Q1 min^−1 mg^−1

SMILES: COc1c(O)c(C)c(C/C=C(\C)CC/C=C(\C)CC/C=C(\C)CC/C=C(\C)CC/C=C(\C)CC/C=C(\C)CC/C=C(\C)CC/C=C(\C)CC/C=C(\C)CCC=C(C)C)c(O)c1OC [Q10H2, ubiquinol-10]
- rMpAOX catalytic rate ([3]; 180 µM Q10H2 in the phospholipid membrane, calculated from KM and VMax): 9.3 µmol/min/mg
- Km [3]: 960 ± 760 µM
- VMax [3]: 59.4 ± 6.6 µmol Q10 min^−1 mg^−1

SMILES: COC1=C(OC)C(=O)C(C/C=C(\C)CC/C=C(\C)CC/C=C(\C)CC/C=C(\C)CC/C=C(\C)CC/C=C(\C)CC/C=C(\C)CC/C=C(\C)CC/C=C(\C)CCC=C(C)C)=C(C)C1=O [Q10]
- Km [3]: 960 ± 760 µM
- VMax [3]: 59.4 µmol Q10 min^−1 mg^−1 and 59.4 ± 6.6 µmol Q10 min^−1 mg^−1

SMILES: O=C(NO)c1ccccc1O [SHAM, salicylhydroxamic acid]
- Fractional velocity, % ([4]; M -4.60206 (Fig2b), 25 µM): 95.8272% and 90.1105%
- Fractional velocity, % ([4]; M -5.60206 (Fig2b), 2.5 µM): 96.6342% and 84.7725%
- Fractional velocity, % ([4]; M -6.60206 (Fig2b), 0.25 µM): 99.0344% and 87.1837%
- Fractional velocity, % ([4]; M -7.60206 (Fig2b), 0.025 µM): 97.5117% and 94.5942%
- Fractional velocity, % ([4]; M -8.60206 (Fig2b), 0.0025 µM): 99.3055% and 95.1323%
- Fractional velocity, % ([4]; M -9.60206 (Fig2b), 0.00025 µM): 99.8162% and 99.1897%
- Fractional velocity, % ([4]; M -10.6021 (Fig2b), 25 pM): 99.1867% and 91.0587%
- activity at 25 µM ([4]; read-out: Fractional velocity, %, log[I], M -4.60206 (Fig2b)): 96.4%
- activity at 2.5 µM ([4]; read-out: Fractional velocity, %, log[I], M -5.60206 (Fig2b)): 98%
- activity at 0.25 µM ([4]; read-out: Fractional velocity, %, log[I], M -6.60206 (Fig2b)): 96.1%
- activity at 0.025 µM ([4]; read-out: Fractional velocity, %, log[I], M -7.60206 (Fig2b)): 95.6%
- activity at 0.0025 µM ([4]; read-out: Fractional velocity, %, log[I], M -8.60206 (Fig2b)): 94.9%
- activity at 0.00025 µM ([4]; read-out: Fractional velocity, %, log[I], M -9.60206 (Fig2b)): 93.7%
- activity at 25 pM ([4]; read-out: Fractional velocity, %, log[I], M -10.6021 (Fig2b)): 88.7%
- Effect on membrane-bound rMpAOX ([4]; up to the maximal tested concentration of 25 µM): did not exert any effect

SMILES: O=C(O)CCC(=O)O [SUCC, succinate]
- Fold-change in membrane-bound rMpAOX O2 uptake [1]: 1.198 and 0.7995 and 1.017
